Positions of bridges follow the written chain, without caps; N, C: chain ends. Non-standard residues stand in square brackets, D forms with d. Residues, ends and D or L forms follow the SMILES beside them.
Key:
Sprague-Dawley rats [1] = assay: Morphine antagonism, hot plate test; format: in vivo, rat; conditions: Reversal of morphine analgesia, 100 μg peptide given I.P. 30 min before 5 mg/kg morphine; 55° C. hot plate, 60 s cut-off; water vehicle control 56.1
Procedure: (§1) Central nervous system activity is determined in an assay which measures the ability of peptides to reverse or inhibit the in vivo analgesia induced in rats by morphine compared to the ability of the peptide to cause skin darkening in frogs in vivo. For a discussion of these assays see generally, Beckwith, B. E. and Sandman, C. A., Peptides, 3, 411-420 (1982) and Zimmerman, E. and Krivoy, W. A., Prog. Brain Res.; 39, 383-394 (1973), which are specifically incorporated by reference herein.
(§2) In Vivo Bioassays. Morphine antagonism was tested in Sprague-Dawley rats (250-300 g) by administering the compounds of the present invention and measuring the latency to rear paw lick and jumping.
(§3) Each rat received either a water vehicle or an α-MSH analog intraperitoneally. Thirty minutes later 5 mg/kg of morphine was administered to all animals and 30 minutes after the administration of the morphine, the percent analgesia was measured. Each animal was placed on a 55° C. hot plate. A sixty second cut-off was used and animals not responding within this time was considered analgesic. The results of these tests are summarized in Table I. Percent analgesia was calculated as follows: [formula] Antagonism to morphine analgesia was also measured using the tail flick test. The tails of the treated animals were placed in a 55° C. water bath and the latency of the animals to withdraw was measured in seconds. A fifteen second cut-off time was used.

Sprague-Dawley rats [2] = assay: Morphine antagonism, tail flick test; format: in vivo, rat; conditions: Reversal of morphine analgesia, 100 μg peptide given I.P. 30 min before 5 mg/kg morphine; 55° C. water bath, 15 s cut-off; water vehicle control 48.9
Procedure: as §1, §2, §3
Percent analgesia in the tail flick test was calculated as follows: [formula]

frog Rana pipiens = assay: Frog skin bioassay (skin darkening, peripheral activity); format: in vivo; conditions: injected into dorsal lymph sac of Rana pipiens, 30 minute observation
Procedure: as §1
The peripheral activity of the compounds was tested using the frog skin bioassay system. See O'Donohue, T. L. and Dorsa, D. M., Peptides, 3, 353-395 (1982) and Hadley, M.E. et. al., Science, 213, 1025-1027 (1981) which are herein specifically incorporated by reference. Peptides were injected into the dorsal lymph sac of the frog Rana pipiens in amounts up to 20 mg. […] The lowest dose of peptide that produced skin darkening within the 30 minute observation period was determined. For example, in Table I, only 0.1 ng/g of α-MSH was administered before skin darkening was observed. In contract, 30 μg/g of [drawing 23] was administered and no skin darkening was observed.

Row | Compound | Percent Analgesia Hot Plate (Sprague-Dawley rats [1]) | Percent Analgesia Tail Flick (Sprague-Dawley rats [2]) | Minimum dose Producing Skin Darkening (frog Rana pipiens)
1 | β-MSH [reference compound] | 26.9% | 11.9% | –
2 | NCCCC[C@H]1NC(=O)[C@H](Cc2ccccc2)NC(=O)[C@H](Cc2c[nH]cn2)NC(=O)[C@H](CCC(=O)O)NC(=O)[C@@H](N)CSSC[C@@H](C(=O)O)NC(=O)[C@H](Cc2ccccc2)NC1=O (H-CEHF[dK]FC-OH; disulfide 1-7) | 15.5% | 14.9% | > 1 µg/g
3 | N=C(N)NCCC[C@H]1NC(=O)[C@H](Cc2ccccc2)NC(=O)[C@H](Cc2c[nH]cn2)NC(=O)[C@H](CCC(=O)O)NC(=O)[C@@H](N)CSSC[C@@H](C(=O)O)NC(=O)[C@H](Cc2c[nH]c3ccccc23)NC1=O | – | 6.7% | > 20 µg/g
4 | NCCCC[C@H]1NC(=O)[C@H](Cc2ccccc2)NC(=O)[C@H](Cc2c[nH]cn2)NC(=O)[C@H](CCC(=O)O)NC(=O)[C@@H](N)CSSC[C@@H](C(=O)O)NC(=O)[C@H](Cc2c[nH]c3ccccc23)NC1=O (H-CEHF[dK]WC-OH; disulfide 1-7) | – | 1.5% | > 30 µg/g
5 | N=C(N)NCCC[C@H]1NC(=O)[C@H](Cc2ccccc2)NC(=O)[C@H](Cc2c[nH]cn2)NC(=O)[C@H](CCC(=O)O)NC(=O)[C@@H](N)CSSC[C@H](C(=O)O)NC(=O)[C@H](Cc2ccccc2)NC1=O (H-CEHF[dR]F[dC]-OH; disulfide 1-7) | 42.6% | 34.3% | > 1 µg/g
6 | NCCCC[C@H]1NC(=O)[C@H](Cc2ccccc2)NC(=O)[C@H](Cc2c[nH]cn2)NC(=O)[C@H](CCC(=O)O)NC(=O)[C@@H](N)CSSC[C@H](C(=O)O)NC(=O)[C@H](Cc2ccccc2)NC1=O (H-CEHF[dK]F[dC]-OH; disulfide 1-7) | 15.0% | 10.5% | 1 µg/g

From patent US4649191A, “Conformationally constrained alpha-melanotropin analogs with specific central nervous system activity” (Gibson-Stephens Neuropharmaceuticals, Inc., priority 1984, dated 1987)
